Data published in the supplement of paper PMC10307832.

Columns and labels:
Assay in all cases: relative viability (nuclei count vs DMSO), 5 days (fraction); higher = more cells survive
[1] = compound: CC1=CC=C(C=C1)C(=O)CN2C3=C(CCCC3)SC2=N [Pifithrin_alpha] + CCNC(=O)c1noc(-c2cc(C(C)C)c(O)cc2O)c1-c1ccc(CN2CCOCC2)cc1 [Luminespib] (partner 0.01 µM)
Procedure, shortened: (§1)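 Cells from lung cancer lines were seeded into 1536-well plates and, one day later, dosed by pin tool. Treatments were either a single drug or a fixed dose of an anchor drug with five library-drug doses (not always all listed) in √10 steps. After 5 days, nuclei were stained in a one-step fixation (final 0.05% Triton X-100, 1% formaldehyde, 1 ug/ml Hoechst) and counted on 4× images, and relative viability is the treated-to-vehicle nuclei ratio, as the median of duplicate plates.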

Bemcentinib + Bortezomib = compound: Nc1nc(Nc2ccc3c(c2)CC[C@@H](N2CCCC2)CC3)nn1-c1cc2c(nn1)-c1ccccc1CCC2 [Bemcentinib] + CC(C)C[C@H](NC(=O)[C@H](Cc1ccccc1)NC(=O)c1cnccn1)B(O)O [Bortezomib] (partner 0.002 µM)
Procedure, shortened: as §1

Axitinib + Decitabine = compound: CNC(=O)c1ccccc1Sc1ccc2c(/C=C/c3ccccn3)n[nH]c2c1 [Axitinib] + Nc1ncn([C@H]2C[C@H](O)[C@@H](CO)O2)c(=O)n1 [Decitabine] (partner 2 µM)
Procedure, shortened: as §1

Axitinib + Vorinostat = compound: CNC(=O)c1ccccc1Sc1ccc2c(/C=C/c3ccccn3)n[nH]c2c1 [Axitinib] + O=C(CCCCCCC(=O)Nc1ccccc1)NO [Vorinostat] (partner 1 µM)
Procedure, shortened: as §1

Cell Line | relative viability ([1]; first compound 1 µM) | relative viability ([1]; first compound 3.162 µM) | relative viability ([1]; first compound 10 µM) | relative viability ([1]; first compound 31.62 µM) | relative viability ([1]; first compound 100 µM) | relative viability (Bemcentinib + Bortezomib; first compound 0.04 µM) | relative viability (Bemcentinib + Bortezomib; first compound 0.1265 µM) | relative viability (Bemcentinib + Bortezomib; first compound 0.4 µM) | relative viability (Bemcentinib + Bortezomib; first compound 1.265 µM) | relative viability (Bemcentinib + Bortezomib; first compound 4 µM) | relative viability (Axitinib + Decitabine; first compound 0.005 µM) | relative viability (Axitinib + Decitabine; first compound 0.01581 µM) | relative viability (Axitinib + Decitabine; first compound 0.05 µM) | relative viability (Axitinib + Decitabine; first compound 0.1581 µM) | relative viability (Axitinib + Decitabine; first compound 0.5 µM) | relative viability (Axitinib + Vorinostat; first compound 0.005 µM) | relative viability (Axitinib + Vorinostat; first compound 0.01581 µM) | relative viability (Axitinib + Vorinostat; first compound 0.05 µM) | relative viability (Axitinib + Vorinostat; first compound 0.1581 µM) | relative viability (Axitinib + Vorinostat; first compound 0.5 µM)
NCI-H1437 | 1.27 | 1.2 | 1.08 | 0.728 | 0.947 | 0.54 | 0.546 | 0.503 | 0.405 | 0.489 | 0.608 | 0.594 | 0.555 | 0.59 | 0.561 | 0.942 | 0.85 | 0.86 | 0.876 | 0.78
NCI-H1650 |  | 0.223 | 0.176 | 0.209 | 0.169 | 0.199 | 0.209 | 0.199 | 0.192 | 0.225 | 0.441 | 0.31 | 0.434 | 0.381 | 0.406 | 0.699 | 0.616 | 0.694 | 0.5 | 0.754
NCI-H1651 | 0.988 | 1.27 | 0.944 | 0.438 | 0.625 | 0.955 | 1.05 | 1.03 | 0.745 | 0.878 | 0.576 | 0.579 | 0.611 | 0.619 | 0.594 | 0.563 | 0.542 | 0.537 | 0.548 | 0.59
NCI-H1666 | 1.05 | 1.01 | 0.877 | 0.821 | 0.645 | 0.649 | 0.937 | 0.854 | 0.895 | 0.759 | 0.751 | 0.747 | 0.731 | 0.73 | 0.75 | 1.07 | 1.14 | 1.02 | 1.09 | 1.11
NCI-H1734 | 0.184 | 0.186 | 0.191 | 0.159 | 0.18 | 0.935 | 0.871 | 1.2 | 0.953 | 0.947 | 0.518 | 0.492 | 0.524 | 0.491 | 0.521 | 0.787 | 0.891 | 0.865 | 0.903 | 0.964
NCI-H1755 | 0.5 | 0.601 | 0.562 | 0.315 | 0.272 | 0.982 | 1 | 0.973 | 0.995 | 0.961 | 0.759 | 0.715 | 0.704 | 0.726 | 0.709 | 0.77 | 0.8 | 0.797 | 0.714 | 0.572
NCI-H1915 | 0.972 | 1.25 |  |  | 1.08 | 0.731 | 1.02 | 1.04 | 0.853 | 1.05 | 0.249 | 0.254 | 0.239 | 0.267 | 0.262 | 0.552 | 0.516 | 0.508 | 0.536 | 0.517
NCI-H1975 | 0.291 | 0.151 | 0.199 | 0.189 | 0.181 | 0.381 | 0.347 | 0.417 | 0.433 | 0.44 | 0.411 | 0.407 | 0.389 | 0.388 | 0.395 | 0.704 | 0.729 | 0.715 | 0.644 | 0.733
NCI-H1993 | 0.716 | 0.658 | 0.704 | 0.621 | 0.66 | 1.12 | 1.17 | 1.14 | 0.921 | 1.2 | 0.709 | 0.634 | 0.609 | 0.631 | 0.668 | 0.826 | 0.835 | 0.734 | 0.722 | 0.876
NCI-H2009 | 1.07 | 1.04 | 0.926 | 0.701 | 0.967 | 0.986 | 1.05 | 1.09 | 1.09 | 1.19 | 0.408 | 0.339 | 0.409 | 0.364 | 0.346 | 0.732 | 0.783 | 0.736 | 0.716 | 0.821
NCI-H2023 | 0.544 | 0.637 | 0.364 | 0.277 | 0.34 | 0.938 | 1.03 | 1.04 | 1.15 | 1.12 | 0.209 | 0.243 | 0.238 | 0.219 | 0.226 | 0.545 | 0.604 | 0.607 | 0.557 | 0.796
